Source: PubChem BioAssay AID2060498 (Molecular Pharmacology Branch, DTP, NCI, 2025)

Test system: 171881-019-R-J1-PDC tumor spheroids, viability
Assay: Anticancer human tumor 171881-019-R-J1-PDC patient-derived invasive breast carcinoma cell line growth inhibition [GQUAD]
Conditions: spheroids with HUVEC and MSC; for IC50: curve of first compound; for viability, T/C: stronger effect = lower value
Procedure, shortened: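 Viability of tumor cells grown as complex spheroids with endothelial and stromal cells, exposed to drug combinations. Top concentration at or near clinical Cmax (else 10 microM), diluted in half-log increments.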

[1] = second compound 0.0316 µM, first compound 0.0316 µM
[2] = second compound 0.0316 µM, first compound 0.1 µM
[3] = second compound 0.0316 µM, first compound 0.316 µM
[4] = second compound 0.0316 µM, first compound 1 µM
[5] = second compound 0.0316 µM, first compound 3.16 µM
[6] = second compound 0.0316 µM, first compound 10 µM
[7] = second compound 0.1 µM, first compound 0.0316 µM
[8] = second compound 0.1 µM, first compound 0.1 µM
[9] = second compound 0.1 µM, first compound 0.316 µM
[10] = second compound 0.1 µM, first compound 1 µM
[11] = second compound 0.1 µM, first compound 3.16 µM
[12] = second compound 0.1 µM, first compound 10 µM
[13] = second compound 0.316 µM, first compound 0.0316 µM
[14] = second compound 0.316 µM, first compound 0.1 µM
[15] = second compound 0.316 µM, first compound 0.316 µM
[16] = second compound 0.316 µM, first compound 1 µM
[17] = second compound 0.316 µM, first compound 3.16 µM
[18] = second compound 0.316 µM, first compound 10 µM
[19] = second compound 1 µM, first compound 0.0316 µM
[20] = second compound 1 µM, first compound 0.1 µM
[21] = second compound 1 µM, first compound 0.316 µM
[22] = second compound 1 µM, first compound 1 µM
[23] = second compound 1 µM, first compound 3.16 µM
[24] = second compound 1 µM, first compound 10 µM
[25] = second compound 3.16 µM, first compound 0.0316 µM
[26] = second compound 3.16 µM, first compound 0.1 µM
[27] = second compound 3.16 µM, first compound 0.316 µM
[28] = second compound 3.16 µM, first compound 1 µM
[29] = second compound 3.16 µM, first compound 3.16 µM
[30] = second compound 3.16 µM, first compound 10 µM
[31] = second compound 10 µM, first compound 0.0316 µM
[32] = second compound 10 µM, first compound 0.1 µM
[33] = second compound 10 µM, first compound 0.316 µM
[34] = second compound 10 µM, first compound 1 µM
[35] = second compound 10 µM, first compound 3.16 µM
[36] = second compound 10 µM, first compound 10 µM
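Wherever viability, T/C is given: 100% = DMSO vehicle control viability.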

Compound: C#Cc1c(F)ccc2cc(O)cc(-c3ncc4c(N5CC6CCC(C5)N6)nc(OCC56CCCN5CC(F)C6)nc4c3F)c12 (stereo unspecified) + CN(C)c1ccc(Nc2c3ccc(NC(=O)CCN4CCCC4)cc3nc3cc(NC(=O)CCN4CCCC4)ccc23)cc1
- IC50 (second compound 0.0316 µM): 509 nM
- IC50 (second compound 0.1 µM): 362 nM
- IC50 (second compound 0.316 µM): < 31.6 nM
- IC50 (second compound 1 µM): < 31.6 nM
- IC50 (second compound 3.16 µM): < 31.6 nM
- IC50 (second compound 10 µM): < 31.6 nM
- viability, T/C [1]: 91.8%
- viability, T/C [2]: 77.2%
- viability, T/C [3]: 53.9%
- viability, T/C [4]: 41.5%
- viability, T/C [5]: 25.2%
- viability, T/C [6]: 11.2%
- viability, T/C [7]: 87.8%
- viability, T/C [8]: 68.1%
- viability, T/C [9]: 52%
- viability, T/C [10]: 35%
- viability, T/C [11]: 23.7%
- viability, T/C [12]: 8.76%
- viability, T/C [13]: 43.1%
- viability, T/C [14]: 33.4%
- viability, T/C [15]: 24.5%
- viability, T/C [16]: 15.3%
- viability, T/C [17]: 11.9%
- viability, T/C [18]: 0.81%
- viability, T/C [19]: 3.77%
- viability, T/C [20]: 3.04%
- viability, T/C [21]: 3.15%
- viability, T/C [22]: 1.14%
- viability, T/C [23]: 1%
- viability, T/C [24]: 0.07%
- viability, T/C [25]: 0.2%
- viability, T/C [26]: 0.29%
- viability, T/C [27]: 0.47%
- viability, T/C [28]: 0.22%
- viability, T/C [29]: 0.17%
- viability, T/C [30]: 0.1%
- viability, T/C [31]: 0.11%
- viability, T/C [32]: 0.1%
- viability, T/C [33]: 0.13%
- viability, T/C [34]: 0.26%
- viability, T/C [35]: 0.26%
- viability, T/C [36]: 0.13%

Compound: CC(=O)O[C@H]1C(=O)[C@@]2(C)[C@H]([C@H](OC(=O)c3ccccc3)[C@]3(O)C[C@H](OC(=O)[C@H](O)[C@@H](NC(=O)c4ccccc4)c4ccccc4)C(C)=C1C3(C)C)[C@]1(OC(C)=O)CO[C@@H]1C[C@@H]2O + CN(C)c1ccc(Nc2c3ccc(NC(=O)CCN4CCCC4)cc3nc3cc(NC(=O)CCN4CCCC4)ccc23)cc1
- IC50 (second compound 0.0316 µM): < 31.6 nM
- IC50 (second compound 0.1 µM): < 31.6 nM
- IC50 (second compound 0.316 µM): < 31.6 nM
- IC50 (second compound 1 µM): < 31.6 nM
- IC50 (second compound 3.16 µM): < 31.6 nM
- IC50 (second compound 10 µM): < 31.6 nM
- viability, T/C [1]: 43.1%
- viability, T/C [2]: 29.6%
- viability, T/C [3]: 29.1%
- viability, T/C [4]: 25.7%
- viability, T/C [5]: 27.4%
- viability, T/C [6]: 26.6%
- viability, T/C [7]: 44.7%
- viability, T/C [8]: 32.1%
- viability, T/C [9]: 26.8%
- viability, T/C [10]: 28.4%
- viability, T/C [11]: 26.4%
- viability, T/C [12]: 25.6%
- viability, T/C [13]: 25.1%
- viability, T/C [14]: 22.9%
- viability, T/C [15]: 20.6%
- viability, T/C [16]: 14.4%
- viability, T/C [17]: 19.6%
- viability, T/C [18]: 15.7%
- viability, T/C [19]: 3.67%
- viability, T/C [20]: 2.91%
- viability, T/C [21]: 3.17%
- viability, T/C [22]: 2.09%
- viability, T/C [23]: 2.08%
- viability, T/C [24]: 2.43%
- viability, T/C [25]: 0.23%
- viability, T/C [26]: 0.45%
- viability, T/C [27]: 0.18%
- viability, T/C [28]: 0.19%
- viability, T/C [29]: 0.24%
- viability, T/C [30]: 0.32%
- viability, T/C [31]: 0.1%
- viability, T/C [32]: 0.18%
- viability, T/C [33]: 0.1%
- viability, T/C [34]: 0.11%
- viability, T/C [35]: 0.27%
- viability, T/C [36]: 0.19%

Compound: COc1cc(C2c3cc4c(cc3C(OC3OC5COC(C)OC5C(O)C3O)C3COC(=O)C23)OCO4)cc(OC)c1O (stereo unspecified) + CN(C)c1ccc(Nc2c3ccc(NC(=O)CCN4CCCC4)cc3nc3cc(NC(=O)CCN4CCCC4)ccc23)cc1
- IC50 (second compound 0.0316 µM): 4590 nM
- IC50 (second compound 0.1 µM): 3500 nM
- IC50 (second compound 0.316 µM): 2630 nM
- IC50 (second compound 1 µM): < 31.6 nM
- IC50 (second compound 3.16 µM): < 31.6 nM
- IC50 (second compound 10 µM): < 31.6 nM
- viability, T/C [1]: 114%
- viability, T/C [2]: 103%
- viability, T/C [3]: 94.9%
- viability, T/C [4]: 79%
- viability, T/C [5]: 51.7%
- viability, T/C [6]: 41.2%
- viability, T/C [7]: 106%
- viability, T/C [8]: 108%
- viability, T/C [9]: 88.9%
- viability, T/C [10]: 76%
- viability, T/C [11]: 49.8%
- viability, T/C [12]: 37.9%
- viability, T/C [13]: 86.4%
- viability, T/C [14]: 87.5%
- viability, T/C [15]: 69.2%
- viability, T/C [16]: 56.5%
- viability, T/C [17]: 54.4%
- viability, T/C [18]: 30.3%
- viability, T/C [19]: 25.3%
- viability, T/C [20]: 15.9%
- viability, T/C [21]: 17.2%
- viability, T/C [22]: 11.2%
- viability, T/C [23]: 10.6%
- viability, T/C [24]: 13.6%
- viability, T/C [25]: 1.86%
- viability, T/C [26]: 2.35%
- viability, T/C [27]: 2.46%
- viability, T/C [28]: 1.99%
- viability, T/C [29]: 2.23%
- viability, T/C [30]: 1.76%
- viability, T/C [31]: 0.27%
- viability, T/C [32]: 0.23%
- viability, T/C [33]: 0.79%
- viability, T/C [34]: 0.49%
- viability, T/C [35]: 0.45%
- viability, T/C [36]: 0.34%
